Results published in paper PMC10661964 (Current Drug Metabolism, 2023).

Key:
Experiment in all cases: Uptake transporter inhibition
Format in all cases: in vitro ADME
[1] = molecular target: T1, OAT1 (Homo sapiens, UniProt Q4U2R8); conditions: probe substrate p-aminohippuric acid
T1 sequence (Q4U2R8 1-563): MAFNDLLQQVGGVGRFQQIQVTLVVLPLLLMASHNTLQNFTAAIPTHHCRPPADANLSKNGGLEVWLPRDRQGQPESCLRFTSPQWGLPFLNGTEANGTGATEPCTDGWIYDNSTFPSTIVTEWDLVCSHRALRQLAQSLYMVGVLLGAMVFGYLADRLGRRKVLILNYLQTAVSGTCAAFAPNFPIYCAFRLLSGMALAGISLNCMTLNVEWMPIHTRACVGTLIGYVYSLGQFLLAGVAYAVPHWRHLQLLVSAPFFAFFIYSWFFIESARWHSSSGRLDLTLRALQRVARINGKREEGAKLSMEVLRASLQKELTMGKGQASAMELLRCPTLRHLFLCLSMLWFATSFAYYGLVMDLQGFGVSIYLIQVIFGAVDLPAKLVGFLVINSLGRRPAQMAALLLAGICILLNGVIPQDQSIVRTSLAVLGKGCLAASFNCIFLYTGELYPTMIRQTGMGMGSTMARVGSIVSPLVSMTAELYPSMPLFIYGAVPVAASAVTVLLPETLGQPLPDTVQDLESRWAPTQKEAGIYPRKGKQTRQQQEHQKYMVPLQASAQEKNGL
Source text: (§1) The inhibition of cytochrome P450 (CYP) isoforms and a range of cellular transporters (except multidrug and toxin extrusion [MATE] proteins), as well as the induction of CYP isoforms were investigated using previously described methods.

[2] = molecular target: T2, OAT3 (Homo sapiens, UniProt Q8TCC7); conditions: probe substrate estrone-3-sulphate
T2 sequence (Q8TCC7 1-542): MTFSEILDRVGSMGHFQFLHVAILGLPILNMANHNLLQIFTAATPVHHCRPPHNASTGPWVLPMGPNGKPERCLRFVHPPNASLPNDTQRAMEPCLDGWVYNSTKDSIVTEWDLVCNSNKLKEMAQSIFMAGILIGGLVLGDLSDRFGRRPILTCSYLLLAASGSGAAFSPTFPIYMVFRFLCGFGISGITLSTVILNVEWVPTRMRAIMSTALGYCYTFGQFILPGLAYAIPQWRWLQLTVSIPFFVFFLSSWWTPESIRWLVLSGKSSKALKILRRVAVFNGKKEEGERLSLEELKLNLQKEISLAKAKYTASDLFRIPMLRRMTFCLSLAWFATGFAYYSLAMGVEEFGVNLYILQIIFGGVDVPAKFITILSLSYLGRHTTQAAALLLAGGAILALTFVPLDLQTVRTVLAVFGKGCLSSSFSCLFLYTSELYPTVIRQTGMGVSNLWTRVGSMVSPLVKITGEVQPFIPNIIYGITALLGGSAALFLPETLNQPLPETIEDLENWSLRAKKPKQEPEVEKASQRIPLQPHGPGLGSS
Source text: as §1

[3] = molecular target: T3, OATP1B3 (Homo sapiens, UniProt Q9NPD5); conditions: probe substrate pravastatin
T3 sequence (Q9NPD5 1-702): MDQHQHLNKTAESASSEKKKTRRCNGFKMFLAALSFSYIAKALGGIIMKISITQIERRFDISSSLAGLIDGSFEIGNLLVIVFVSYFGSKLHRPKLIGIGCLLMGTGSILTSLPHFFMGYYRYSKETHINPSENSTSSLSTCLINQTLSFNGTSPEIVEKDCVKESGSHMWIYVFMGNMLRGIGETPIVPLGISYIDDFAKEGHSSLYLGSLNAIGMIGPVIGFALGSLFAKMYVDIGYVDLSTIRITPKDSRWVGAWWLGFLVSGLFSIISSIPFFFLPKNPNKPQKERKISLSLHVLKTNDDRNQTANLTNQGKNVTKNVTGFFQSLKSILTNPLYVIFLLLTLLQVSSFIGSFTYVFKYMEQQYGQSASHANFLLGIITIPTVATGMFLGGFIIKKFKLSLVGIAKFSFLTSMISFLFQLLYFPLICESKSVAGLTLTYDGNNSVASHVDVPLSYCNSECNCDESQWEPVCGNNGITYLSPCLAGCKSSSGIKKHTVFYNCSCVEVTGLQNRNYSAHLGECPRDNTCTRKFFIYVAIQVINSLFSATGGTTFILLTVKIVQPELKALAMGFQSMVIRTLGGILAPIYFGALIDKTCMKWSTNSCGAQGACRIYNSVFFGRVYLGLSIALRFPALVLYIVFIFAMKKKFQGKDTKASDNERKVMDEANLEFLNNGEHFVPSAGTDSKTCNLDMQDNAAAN
Source text: as §1

[4] = molecular target: T4, OCT2 (Homo sapiens, UniProt O15244); conditions: probe substrate 1-methyl-4-phenylpyridinium
T4 sequence (O15244 1-555): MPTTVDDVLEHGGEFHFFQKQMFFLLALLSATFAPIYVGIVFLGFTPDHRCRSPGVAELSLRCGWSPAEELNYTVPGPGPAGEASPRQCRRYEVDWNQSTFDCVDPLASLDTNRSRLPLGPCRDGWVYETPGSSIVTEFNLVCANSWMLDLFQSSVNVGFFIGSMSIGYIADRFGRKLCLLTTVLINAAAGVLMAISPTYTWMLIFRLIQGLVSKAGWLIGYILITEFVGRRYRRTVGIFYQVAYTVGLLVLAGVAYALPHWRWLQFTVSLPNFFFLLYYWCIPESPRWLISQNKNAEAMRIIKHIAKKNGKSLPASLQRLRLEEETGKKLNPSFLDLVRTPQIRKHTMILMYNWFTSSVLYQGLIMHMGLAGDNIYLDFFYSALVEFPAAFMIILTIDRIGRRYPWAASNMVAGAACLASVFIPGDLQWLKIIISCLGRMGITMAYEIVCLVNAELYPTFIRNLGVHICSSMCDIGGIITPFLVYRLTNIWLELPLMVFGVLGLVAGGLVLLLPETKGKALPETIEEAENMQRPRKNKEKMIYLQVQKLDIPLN
Source text: as §1

| Structure (SMILES) | IC50 [1] [µM] | IC50 [2] [µM] | IC50 [3] [µM] | IC50 [4] [µM] |
| --- | --- | --- | --- | --- |
| CC1CS(=O)(=O)CCN1/N=C/c1ccc([N+](=O)[O-])o1 (stereo not drawn) [Nifurtimox, (E)-N-(3-methyl-1,1-dioxo-1,4-thiazinan-4-yl)-1-(5-nitrofuran-2-yl) methanimine, reference compound] | > 20 | > 20 | > 50 | > 20 |
| CC1CS(=O)(=O)CCN1n1cc(SCC(N)C(=O)O)ccc1=O (stereo not drawn) [M-4] | > 5 | > 5 | 10 | > 5 |
| CC1CS(=O)(=O)CCN1N (stereo not drawn) [M-6] | > 30 | > 30 | > 50 | > 30 |
